Assay results taken from patent publication US10336701B2, “Pyridin-2-one derivatives of formula (II) useful as EP3 receptor antagonists” (Janssen Pharmaceutica NV, priority 2017, dated 2019).

How the values were obtained:
[1] = biological target: T1, EP3 receptor (Homo sapiens, UniProt P43115); assay: [3H]-PGE2 binding assay (EP3 competition binding); conditions: read-out: [3H]-PGE2 Binding Ki
T1 construct: purchased Millipore HTS092M
T1 sequence (P43115 1-390): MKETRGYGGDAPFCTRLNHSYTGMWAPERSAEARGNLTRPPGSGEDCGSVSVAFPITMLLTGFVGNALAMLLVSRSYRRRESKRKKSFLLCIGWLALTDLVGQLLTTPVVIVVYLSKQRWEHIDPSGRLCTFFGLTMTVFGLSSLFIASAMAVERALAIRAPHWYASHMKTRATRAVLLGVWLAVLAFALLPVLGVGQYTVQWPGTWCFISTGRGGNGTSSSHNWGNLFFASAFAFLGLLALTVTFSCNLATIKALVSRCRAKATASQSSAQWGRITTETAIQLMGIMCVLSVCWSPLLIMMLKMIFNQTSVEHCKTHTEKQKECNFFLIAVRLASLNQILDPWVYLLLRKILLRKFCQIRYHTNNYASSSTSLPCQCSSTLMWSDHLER
Outline: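 Scintillation-bead competition binding with EP3 membranes (2 μg/well), 2 nM [3H]-PGE2, 0.1% DMSO, in 50 mM Tris, 10 mM MgCl2, 1 mM EDTA, pH 7.4.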

[2] = biological target: T1, EP3 receptor; assay: CHO cell cAMP assay (forskolin and sulprostone stimulated, HTRF); type: cell-based; conditions: CHO cells; sulprostone 700 nM (EC80) and FSK 2 μM (EC70), 37° C. for 30 minutes; read-out: CHO_cAMP IC50
Method: For detection, a homogeneous competitive immunoassay (Time Resolved Fluorescence Energy Transfer (hTR-FRET)) was used.
Cells (6K cells per well) were plated in Poly-D-Lysine coated plates the day before the assay was to be run and were incubated at 37° C. […] At the start of the assay the buffer was removed from the cells and replaced with buffer containing test compound(s). Sulprostone at an EC80 dose (700 nM) and FSK at an EC70 dose (2 μM) were added to initiate the reaction (37° C. for 30 minutes).
FSK increases cAMP production and sulprostone decreases cAMP production produced by FSK. In this assay, EP3 antagonists will increase the cAMP to the level of cAMP generated by FSK alone.
Approximately one hour later the plates were read on an Envision (Perkin Elmer) in HTRF mode.
NSP, NSN, NSsample were converted to nM cAMP using the following equation: […]
IC50 values were determined from a […] (Hill equation) of a single 11-point compound dosing.

Ki [1] [nM] | IC50 [2] [nM] | SMILES
40 | 2830 | CS(=O)(=O)N1CCC(c2ccc(-c3ccc4ccccc4c3)[nH]c2=O)CC1 [compound 186, 3-(1-(methylsulfonyl)piperidin-4-yl)-6-(naphthalen-2-yl)pyridin-2(1H)-one]
169 | 967 | CCn1ncc2c(F)cc(-c3ccc(C4CCN(C(=O)CO)CC4)c(=O)[nH]3)cc21 [compound 197, 6-(1-ethyl-4-fluoro-1H-indazol-6-yl)-3-(1-(2-hydroxyacetyl)piperidin-4-yl)pyridin-2(1H)-one]
4 | 8 | O=C1NC(=O)/C(=C/C(c2ccc(-c3ccc4cccc(F)c4c3)[nH]c2=O)C2CCCCC2)O1 (stereo not shown) [compound 134, (Z)-5-(2-cyclohexyl-2-(6-(8-fluoronaphthalen-2-yl)-2-oxo-1,2-dihydropyridin-3-yl)ethylidene)oxazolidine-2,4-dione]
39 | 88 | CC(C)(CC1OC(=O)NC1=O)c1ccc(-c2ccc3cccc(F)c3c2)[nH]c1=O (stereo not shown) [compound 1, 5-(2-(6-(8-fluoronaphthalen-2-yl)-2-oxo-1,2-dihydropyridin-3-yl)-2-methylpropyl) oxazolidine-2,4-dione]
164 | 579 | CC(C)C(CC(=O)NS(=O)(=O)c1cc(Cl)c(Cl)s1)c1ccc(-c2ccc3cccc(F)c3c2)[nH]c1=O (stereo not shown) [compound 256, N-(4,5-dichlorothiophen-2-ylsulfonyl)-3-(6-(8-fluoronaphthalen-2-yl)-2-oxo-1,2-dihydropyridin-3-yl)-4-methylpentanamide]
32 | 149 | CCn1ncc2c(F)cc(-c3ccc(C(CC4OC(=O)NC4=O)C(C)C)c(=O)[nH]3)cc21 (stereo not shown) [compound 87, 5-(2-(6-(1-ethyl-4-fluoro-1H-indazol-6-yl)-2-oxo-1,2-dihydropyridin-3-yl)-3-methylbutyl)oxazoli-dine-2,4-dione]
> 10000 | > 20000 | CCn1ncc2c(F)cc(-c3ccc(C4CN(S(=O)(=O)C(C)C)C4)c(=O)[nH]3)cc21 [compound 214, 6-(1-ethyl-4-fluoro-1H-indazol-6-yl)-3-(1-(isopropylsulfonyl)azetidin-3-yl)pyridin-2(1H)-one]
9 | 20 | CCn1ncc2c(F)cc(-c3ccc(C(CC)(CC)c4nnco4)c(=O)[nH]3)cc21 [Compound #42, 3-(3-(1,3,4-oxadiazol-2-yl)pentan-3-yl)-6-(1-ethyl-4-fluoro-1H-indazol-6-yl)pyridin-2(1H)-one]
1290 | 10800 | CC(C)C(F)(C(=O)NS(C)(=O)=O)c1ccc(-c2ccc3ccccc3c2)[nH]c1=O (stereo not shown) [compound 224, 2-fluoro-3-methyl-N-(methylsulfonyl)-2-(6-(naphthalen-2-yl)-2-oxo-1,2-dihydropyridin-3-yl)butanamide]
32 | 278 | CC(C)C(/C=C1\OC(=O)NC1=O)c1ccc(-c2cc(F)c3cnn(C(C)C)c3c2)[nH]c1=O (stereo not shown) [compound 122, (Z)-5-(2-(6-(4-fluoro-1-isopropyl-1H-indazol-6-yl)-2-oxo-1,2-dihydropyridin-3-yl)-3-methylbutylidene)oxazolidine-2,4-dione]
7 | 26 | CC(=C1OC(=O)NC1=O)C(c1ccc(-c2ccc3cccc(F)c3c2)[nH]c1=O)C(C)C (stereo not shown) [compound 84]
5 | 20 | CC(C)C1(c2ccc(-c3ccc4cccc(F)c4c3)[nH]c2=O)C(=O)Nc2nccn21 (stereo not shown) [compound 155, 3-(6-(8-fluoronaphthalen-2-yl)-2-oxo-1,2-dihydropyridin-3-yl)-3-isopropyl-1H-imidazo[1,2-a]imidazol-2(3H)-one]
2 | 6 | CC(C)C1(c2ccc(-c3ccc4cccc(F)c4c3)[nH]c2=O)N=C(NC#N)NC1=O (stereo not shown) [compound 236, N-(4-(6-(8-fluoronaphthalen-2-yl)-2-oxo-1,2-dihydropyridin-3-yl)-4-isopropyl-5-oxo-4,5-dihydro-1H-imidazol-2-yl)cyanamide]
43 | 376 | CC(C)C(c1nnn[nH]1)c1ccc(-c2ccc3ccccc3c2)[nH]c1=O (stereo not shown) [compound 61, 3-(2-Methyl-1-(1H-tetrazol-5-yl)propyl)-6-(naphthalen-2-yl)pyridin-2(1H)-one]
42 | 286 | O=c1[nH]c(-c2ccc3ccccc3c2)ccc1C1CCc2n[nH]cc2C1 (stereo not shown) [compound 195, 6-(naphthalen-2-yl)-3-(4,5,6,7-tetrahydro-2H-indazol-5-yl)pyridin-2(1H)-one]
6 | 56 | CC(C)C1(c2ccc(-c3ccc4cccc(F)c4c3)[nH]c2=O)NC(=S)NC1=O (stereo not shown) [compound 294, 6-(8-fluoronaphthalen-2-yl)-3-(4-isopropyl-5-oxo-2-thioxoimidazolidin-4-yl)pyridin-2(1H)-one]
20 | 220 | CC(C)C(C(=O)NC1CCNC1)c1ccc(-c2ccc3cccc(F)c3c2)[nH]c1=O (stereo not shown) [compound 178, 2-(6-(8-fluoronaphthalen-2-yl)-2-oxo-1,2-dihydropyridin-3-yl)-3-methyl-N-(pyrrolidin-3-yl)butanamide]
12 | 59 | CC(C)C(Cc1ccc(-c2ccc3cccc(F)c3c2)[nH]c1=O)C(N)=O (stereo not shown) [compound 253, 2-((6-(8-fluoronaphthalen-2-yl)-2-oxo-1,2-dihydropyridin-3-yl)methyl)-3-methylbutanamide]
2 | 12 | CCn1ncc2c(F)cc(-c3ccc(C(CC)(CC)c4ncco4)c(=O)[nH]3)cc21 [Compound #30, 6-(1-ethyl-4-fluoro-1H-indazol-6-yl)-3-(3-(oxazol-2-yl)pentan-3-yl)pyridin-2(1H)-one]
76 | 671 | CCOC(=O)C(C1=CCCCC1)c1ccc(-c2ccc3ccccc3c2)[nH]c1=O (stereo not shown) [Compound #280, ethyl 2-(cyclohex-1-en-1-yl)-2-(6-(naphthalen-2-yl)-2-oxo-1,2-dihydropyridin-3-yl)acetate]
740 | 900 | CC1(c2ccc(-c3ccc4ccccc4c3)[nH]c2=O)CNS(=O)(=O)N1 (stereo not shown) [compound 282, 3-(3-methyl-1,1-dioxido-1,2,5-thiadiazolidin-3-yl)-6-(naphthalen-2-yl)pyridin-2(1H)-one]
5 | 53 | CC(C)C(CC(N)=O)c1ccc(-c2ccc3ccccc3c2)[nH]c1=O (stereo not shown) [compound 249, 4-methyl-3-(6-(naphthalen-2-yl)-2-oxo-1,2-dihydropyridin-3-yl)pentanamide]
428 | 2140 | CC1(c2ccc(-c3ccc4ccccc4c3)[nH]c2=O)C(=O)Nc2nncn21 (stereo not shown) [compound 152, 3-[5-methyl-6-oxo-5H, 6H, 7H-imidazo[2,1-c][1,2,4]triazol-5-yl]-6-(naphthalen-2-yl)-1,2-dihydropyridin-2-one]
496 | 3580 | CC1=NC(C)(c2ccc(-c3ccc4ccccc4c3)[nH]c2=O)C(=O)N1 (stereo not shown) [compound 223, 3-(2,4-dimethyl-5-oxo-4,5-dihydro-1H-imidazol-4-yl)-6-(naphthalen-2-yl)-1,2-dihydropyridin-2-one]
979 | 8300 | CCn1ncc2c(F)cc(-c3ccc(C4(O)CN(S(=O)(=O)C(C)C)C4)c(=O)[nH]3)cc21 [compound 298, 6-(1-ethyl-4-fluoro-1H-indazol-6-yl)-3-(3-hydroxy-1-(isopropylsulfonyl)azetidin-3-yl)pyridin-2(1H)-one]
6 | 14 | CC(C)C(NC(N)=O)c1ccc(-c2ccc3cccc(F)c3c2)[nH]c1=O (stereo not shown) [compound 267, 1-(1-(6-(8-fluoronaphthalen-2-yl)-2-oxo-1,2-dihydropyridin-3-yl)-2-methylpropyl)urea]
202 | 19200 | CC(C)C(/C=C1\OC(=O)NC1=O)c1ccc(-c2cc(F)c3cnn(C4CCCC4)c3c2)[nH]c1=O (stereo not shown) [compound 124, (Z)-5-(2-(6-(1-cyclopentyl-4-fluoro-1H-indazol-6-yl)-2-oxo-1,2-dihydropyridin-3-yl)-3-methylbutylidene)oxazolidine-2,4-dione]
8 | 87 | CCn1ncc2c(F)cc(-c3ccc(C4CCC5(CCCNC5=O)CC4)c(=O)[nH]3)cc21 (stereo not shown) [compound 196, 9-(6-(1-ethyl-4-fluoro-1H-indazol-6-yl)-2-oxo-1,2-dihydropyridin-3-yl)-2-azaspiro[5.5]undecan-1-one]
1350 | > 20000 | CCn1ncc2c(F)c(-c3ccc(C(/C=C4/OC(=O)NC4=O)(CC)CC)c(=O)[nH]3)ccc21 [compound 12, (E)-5-(2-ethyl-2-(6-(1-ethyl-4-fluoro-1H-indazol-5-yl)-2-oxo-1,2-dihydropyridin-3-yl)butylidene)oxazolidine-2,4-dione]
